For 26 compounds, total intracellular glutathione results are on record in the supplement of paper PMC10011410.

± gives the standard deviation of the averaged measurements.

The first test concerns U-2 OS. In words: total intracellular glutathione (GSH + GSSG) relative to DMSO (% of control); higher = more glutathione. As to conditions: 5 µM; 24 h. As to the method: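 Total intracellular glutathione (GSH + GSSG) in U-2 OS cells by GSH/GSSG-Glo after 24 h compound treatment at 5, 10 and 20 uM (some at 40 and 80 uM), as percent of DMSO control. Five technical replicate plates, averaged.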
Consider `O=S1(=O)C=Cc2ccccc21`, for which the total intracellular glutathione is 138 ± 4.
As to `CC(=O)c1c(O)c(C)c(O)c(Cc2c(O)c3c(c(C(=O)C=Cc4ccccc4)c2O)OC(C)(C)C=C3)c1O`, the total intracellular glutathione came to 95.7 ± 2.9.
As to `CC1(C)CC[C@]2(C(=O)n3ccnc3)CC[C@]3(C)[C@H](C(=O)C=C4[C@@]5(C)C=C(C#N)C(=O)C(C)(C)[C@@H]5CC[C@]43C)[C@@H]2C1`, the total intracellular glutathione came out at 36.9 ± 4.2.
As for `COC[C@H]1OC(=O)c2coc3c2[C@@]1(C)C1=C(C3=O)[C@@H]2CCC(=O)[C@@]2(C)C[C@H]1OC(C)=O`, the total intracellular glutathione worked out at 85.3 ± 3.2.
Take `c1ccc(Nc2nc(-c3ccccc3)ns2)cc1`: the total intracellular glutathione was determined as 104 ± 6.9.
Still for that read-out and setting: then `C=CC(=O)Nc1cccc(Oc2nc(Nc3ccc(N4CCN(C)CC4)cc3OC)ncc2Cl)c1`, with 110 ± 7.6.
Same read-out and setting: as for `Cn1nnnc1SC1=CS(=O)(=O)c2ccccc21`, the figure is 59.4 ± 4.2; as for `CCC(=O)N1CCN(c2ccc(-n3c(=O)ccc4cnc5ccc(-c6cnc7ccccc7c6)cc5c43)cc2C(F)(F)F)CC1`, 58.8 ± 4.2; as for `O=C1CC(Nc2ccccc2)C(=O)N1Cc1ccccc1` (stereo not drawn), 92.2 ± 3.2.
Still for that read-out and setting: as for `C[C@@H]1C[C@H]2O[C@@H]2/C=C\C=C\C(=O)Cc2c(Cl)c(O)cc(O)c2C(=O)O1`, the figure is 87.8 ± 4.1; as for `C=CC(=O)Nc1cc2c(Nc3ccc(F)c(Cl)c3)ncnc2cc1OCCCN1CCOCC1`, 69.5 ± 4.6; as for `O=C1/C(=C/c2ccc(O)c(Br)c2)CCC/C1=C\c1ccc(O)c(Br)c1`, 113 ± 2.6.
As for `CNC(=O)Nc1ccc2c(c1)CC[C@@]21OC(=O)N(CC(=O)N(Cc2ccc(F)cc2)[C@@H](C)C(F)(F)F)C1=O`, the total intracellular glutathione was found to be 81.7 ± 3.5.
On to `O=C(O[C@@H]1Cc2c(O)cc(O)cc2O[C@@H]1c1cc(O)c(O)c(O)c1)c1cc(O)c(O)c(O)c1`, for which the total intracellular glutathione was found to be 96 ± 2.7.
On the same count and under the same terms, as for `O=S1(=O)C=C(Sc2nn(-c3ccccc3)c(=S)s2)c2ccccc21`, the figure is 65 ± 9.1; as for `C=CC(=O)Nc1ccc(CN2C(=O)N(c3cc(OC)cc(OC)c3)Cc3cnc(Nc4ccc(N5CCN(C)CC5)cc4)nc32)cc1`, 96.1 ± 3.3.
Regarding `CCCCCCCCCCCCCCCc1cccc(O)c1C(=O)O`, the total intracellular glutathione was 105 ± 3.3.
Take `Cl.Cl.O=C(O)Cn1nnc(-c2ccc(CN(CCCCOc3ccc(CN4CCCC4)cc3)CCc3ccccc3)cc2)n1`: the total intracellular glutathione was determined as 99.4 ± 2.1.
Same read-out and setting: as for `COc1cc2ncnc(Nc3ccc(F)c(Cl)c3)c2cc1NC(=O)/C=C/CN1CCCCC1`, the figure is 81.2 ± 4.8; as for `Cc1cc(-c2ccccc2)cc(C(=O)NNS(=O)(=O)c2ccccc2)c1F`, 124 ± 13; as for `Cn1c(=O)n(-c2ccc(C(C)(C)C#N)cc2)c2c3cc(-c4cnc5ccccc5c4)ccc3ncc21`, 71.3 ± 4.7.
On to `CCCCCC[C@H]1C(=O)O[C@H](C)[C@H](NC(=O)c2cccc(NC=O)c2O)C(=O)O[C@@H](C)[C@@H]1OC(=O)CC(C)C`, for which the total intracellular glutathione stood at 65.6 ± 6.7.
With `COC(=O)[C@]1(C)CC[C@]2(C)CC[C@]3(C)C4=CC=C5C(=CC(=O)C(O)=C5C)[C@]4(C)CC[C@@]3(C)[C@@H]2C1`, the total intracellular glutathione turned out to be 9.07 ± 0.87.

Staying with this test, now noted: 10 µM; 24 h.
Turning to `O=C(Nc1nc(-c2ccccc2)ns1)c1cccs1`, the total intracellular glutathione is 98.1 ± 5.4.
On to `Cc1cc2c(C(C)C)c(O)c(O)c(C=O)c2c(O)c1-c1c(C)cc2c(C(C)C)c(O)c(O)c(C=O)c2c1O`, for which the total intracellular glutathione was determined as 70 ± 4.9.
Consider `C=CC(=O)Nc1cc(Nc2nccc(-c3cn(C)c4ccccc34)n2)c(OC)cc1N(C)CCN(C)C`, for which the total intracellular glutathione was 77.4 ± 3.5.
On the same count and under the same terms, as for `O=S1(=O)C=Cc2ccccc21`, the figure is 132 ± 8.3; as for `CC(=O)c1c(O)c(C)c(O)c(Cc2c(O)c3c(c(C(=O)C=Cc4ccccc4)c2O)OC(C)(C)C=C3)c1O`, 91.7 ± 4.9; as for `CC1(C)CC[C@]2(C(=O)n3ccnc3)CC[C@]3(C)[C@H](C(=O)C=C4[C@@]5(C)C=C(C#N)C(=O)C(C)(C)[C@@H]5CC[C@]43C)[C@@H]2C1`, 38 ± 6.2.
Consider `COC[C@H]1OC(=O)c2coc3c2[C@@]1(C)C1=C(C3=O)[C@@H]2CCC(=O)[C@@]2(C)C[C@H]1OC(C)=O`, for which the total intracellular glutathione came out at 82.6 ± 4.
The same measure, in the same setting: as for `c1ccc(Nc2nc(-c3ccccc3)ns2)cc1`, the figure is 96.4 ± 2.9; as for `C=CC(=O)Nc1cccc(Oc2nc(Nc3ccc(N4CCN(C)CC4)cc3OC)ncc2Cl)c1`, 102 ± 5.2.
The same measure, in the same setting: then `Cn1nnnc1SC1=CS(=O)(=O)c2ccccc21`, with 85.3 ± 12.
The same measure, in the same setting: as for `CCC(=O)N1CCN(c2ccc(-n3c(=O)ccc4cnc5ccc(-c6cnc7ccccc7c6)cc5c43)cc2C(F)(F)F)CC1`, the figure is 58.6 ± 4.8.
With `O=C1CC(Nc2ccccc2)C(=O)N1Cc1ccccc1` (stereo not drawn), the total intracellular glutathione turned out to be 94.5 ± 4.7.
On the same count and under the same terms, as for `C[C@@H]1C[C@H]2O[C@@H]2/C=C\C=C\C(=O)Cc2c(Cl)c(O)cc(O)c2C(=O)O1`, the figure is 36 ± 6.1; as for `C=CC(=O)Nc1cc2c(Nc3ccc(F)c(Cl)c3)ncnc2cc1OCCCN1CCOCC1`, 11.2 ± 1.2; as for `O=C1/C(=C/c2ccc(O)c(Br)c2)CCC/C1=C\c1ccc(O)c(Br)c1`, 126 ± 4.8.
On to `CNC(=O)Nc1ccc2c(c1)CC[C@@]21OC(=O)N(CC(=O)N(Cc2ccc(F)cc2)[C@@H](C)C(F)(F)F)C1=O`, for which the total intracellular glutathione turned out to be 74.9 ± 6.2.
Consider `O=C(O[C@@H]1Cc2c(O)cc(O)cc2O[C@@H]1c1cc(O)c(O)c(O)c1)c1cc(O)c(O)c(O)c1`, for which the total intracellular glutathione was determined as 102 ± 5.6.
Consider `O=S1(=O)C=C(Sc2nn(-c3ccccc3)c(=S)s2)c2ccccc21`, for which the total intracellular glutathione worked out at 43.8 ± 9.
As for `C=CC(=O)Nc1ccc(CN2C(=O)N(c3cc(OC)cc(OC)c3)Cc3cnc(Nc4ccc(N5CCN(C)CC5)cc4)nc32)cc1`, the total intracellular glutathione was found to be 93.1 ± 5.
Still for that read-out and setting: as for `CCCCCCCCCCCCCCCc1cccc(O)c1C(=O)O`, the figure is 94.7 ± 4.2.
